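48-hour exposure; five concentrations; linearly interpolated endpoints. Abbreviation: GI50, concentration required for 50% inhibition of growth. At the TGI there is no net growth.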
What was measured:
Experiment in all cases: inhibition of tumour cell growth, NCI panel, 48 h
[1] = test system: CCRF-CEM leukemia
[2] = test system: IGROV1 ovarian
[3] = test system: OVCAR-3 ovarian
[4] = test system: UACC-257 melanoma
[5] = test system: SNB-19 CNS
[6] = test system: MALME-3M melanoma
[7] = test system: KM12 colon
[8] = test system: HL-60(TB) leukemia
[9] = test system: T-47D breast
[10] = test system: MOLT-4 leukemia
[11] = test system: K-562 leukemia
[12] = test system: MDA-MB-435
[13] = test system: HT29 colon
[14] = test system: NCI-H226 lung
[15] = test system: HS 578T breast
[16] = test system: OVCAR-8 ovarian
[17] = test system: NCI/ADR-RES ovarian
[18] = test system: HOP-62 NSCLC
[19] = test system: A549 NSCLC
[20] = test system: MCF7 breast
[21] = test system: SNB-75 CNS
[22] = test system: SK-MEL-5 melanoma
[23] = test system: NCI-H522 lung
[24] = test system: ACHN renal
[25] = test system: RXF 393 renal
[26] = test system: COLO 205 colon
[27] = test system: SF-539 CNS
[28] = test system: SK-MEL-2 melanoma
[29] = test system: UACC-62 melanoma
[30] = test system: RPMI-8226 leukemia
[31] = test system: OVCAR-5 ovarian
[32] = test system: TK-10 renal
[33] = test system: HCT-116 colon
[34] = test system: SK-OV-3 ovarian
[35] = test system: HOP-92 NSCLC
[36] = test system: OVCAR-4 ovarian
[37] = test system: 786-0 renal
[38] = test system: UO-31 renal
[39] = test system: SK-MEL-28 melanoma
[40] = test system: NCI-H460 lung
[41] = test system: EKVX NSCLC
[42] = test system: DU-145 prostate
[43] = test system: SF-268 CNS
[44] = test system: SR leukemia
[45] = test system: NCI-H23 lung
[46] = test system: HCC-2998 colon
[47] = test system: SF-295 CNS
[48] = test system: PC-3 prostate
[49] = test system: SW-620 colon
[50] = test system: HCT-15 colon
[51] = test system: BT-549 breast
[52] = test system: MDA-MB-231 breast
[53] = test system: M14 melanoma
[54] = test system: SN12C renal
[55] = test system: CAKI-1 renal

CC1=C(Nc2ccc(N3CCN(C)CC3)cc2)C(=O)c2cncnc2C1=O
GI50 [1]: 2.6 µM | TGI [1]: > 100 µM | GI50 [2]: 2.24 µM | TGI [2]: 5.17 µM | GI50 [3]: 1.97 µM | TGI [3]: 4.28 µM | GI50 [4]: 2.34 µM | TGI [4]: 6.42 µM | GI50 [5]: 17.2 µM | TGI [5]: 37.2 µM | GI50 [6]: 8.96 µM | TGI [6]: 21.7 µM | GI50 [7]: 10.1 µM | TGI [7]: 30.4 µM | GI50 [8]: 2.5 µM | TGI [8]: 6.11 µM | GI50 [9]: 1.78 µM | TGI [9]: 4.26 µM | GI50 [10]: 2.01 µM | TGI [10]: 6.39 µM | GI50 [11]: 2.78 µM | TGI [11]: > 100 µM | GI50 [12]: 1.87 µM | TGI [12]: 3.4 µM | GI50 [13]: 10.2 µM | TGI [13]: 61.8 µM | GI50 [14]: 15.2 µM | TGI [14]: 35.7 µM | GI50 [15]: 19.5 µM | TGI [15]: 55.1 µM | GI50 [16]: 2.28 µM | TGI [16]: 6.28 µM | GI50 [17]: 3.09 µM | TGI [17]: 20.3 µM | GI50 [18]: 19.2 µM | TGI [18]: 60.4 µM | GI50 [19]: 3.96 µM | TGI [19]: 17.6 µM | GI50 [20]: 1.92 µM | TGI [20]: 4.19 µM | GI50 [21]: 14.7 µM | TGI [21]: 30 µM | GI50 [22]: 14.4 µM | TGI [22]: 27.6 µM | GI50 [23]: 16.1 µM | TGI [23]: 39.3 µM | GI50 [24]: 2.31 µM | TGI [24]: 5.88 µM | GI50 [25]: 5.71 µM | TGI [25]: 19.4 µM | GI50 [26]: 15.8 µM | TGI [26]: 33.1 µM | GI50 [27]: 13.5 µM | TGI [27]: 26.9 µM | GI50 [28]: 16 µM | TGI [28]: 42 µM | GI50 [29]: 2.38 µM | TGI [29]: 5.64 µM | GI50 [30]: 3.26 µM | TGI [30]: 11.7 µM | GI50 [31]: 3.66 µM | TGI [31]: 16.9 µM | GI50 [32]: 28.5 µM | TGI [32]: 58.1 µM | GI50 [33]: 2.48 µM | TGI [33]: 6.13 µM | GI50 [34]: 16.7 µM | TGI [34]: 35.3 µM | GI50 [35]: 2.12 µM | TGI [35]: 4.37 µM | GI50 [36]: 1.09 µM | TGI [36]: 2.28 µM | GI50 [37]: 20.4 µM | TGI [37]: 52.5 µM | GI50 [38]: 13.9 µM | TGI [38]: 33.5 µM | GI50 [39]: 17.1 µM | TGI [39]: 43.3 µM | GI50 [40]: 3.31 µM | TGI [40]: 11.4 µM | GI50 [41]: 5.63 µM | TGI [41]: 19.1 µM | GI50 [42]: 4.34 µM | TGI [42]: 16.9 µM | GI50 [43]: 16 µM | TGI [43]: 50.4 µM | GI50 [44]: 3.22 µM | TGI [44]: > 100 µM | GI50 [45]: 6.26 µM | TGI [45]: 32.7 µM | GI50 [46]: 17.4 µM | TGI [46]: 36 µM | GI50 [47]: 11.9 µM | TGI [47]: 28.1 µM | GI50 [48]: 3.05 µM | TGI [48]: 11.9 µM | GI50 [49]: 2.54 µM | TGI [49]: 8.04 µM | GI50 [50]: 12.9 µM | TGI [50]: 41 µM | GI50 [51]: 17.1 µM | TGI [51]: 32.5 µM | GI50 [52]: 2.67 µM | TGI [52]: 7.78 µM | GI50 [53]: 14.9 µM | TGI [53]: 32.2 µM | GI50 [54]: 2.02 µM | TGI [54]: 4.48 µM | GI50 [55]: 3.27 µM | TGI [55]: 14.2 µM

From PubChem BioAssay (NCI)
